Values of other authors, collected in patent publication US11089780B2, “Pendimethanlin microcapsules with a shell made of tetramethylxylylene diisocyanate and a polyamine with at least three amine groups” (BASF SE, priority 2015, dated 2021).

Conditions: at 25° C.

For CCC(CC)Nc1c([N+](=O)[O-])cc(C)c(C)c1[N+](=O)[O-] [Pendimethalin, 3,4-dimethyl-2,6-dinitro-N-pentan-3-yl-aniline], the Vapor pressure is listed as “about 2 mPa”.
